Read-outs that look alike come from different tables or passages of the source.
System: 60 different human tumor cell lines
Assay: NCI in vitro antiproliferative screen, 60 human tumor cell lines (SRB, GI50)
Assay type: cell-based
Experimental: In Vitro antipoliferative study of Compound 2a was performed by the National Cancer Institute (National Institutes of Health, Bethesda, Md., USA) against a panel of cancer cell lines in order to determine the concentrations needed to obtain a 50% inhibition of cell proliferation (IC50). The operation of this unique screen utilizes 60 different human tumor cell lines, representing leukemia, melanoma, and cancers of the lung, colon, brain, ovary, breast prostate and kidney. Compound 2(a) was provided as a lyophilized powder with an estimated purity of 90+%. The compound was stored at −20° C. until day of use.
The human tumor cell lines of the cancer-screening panel were grown in RPMI 1640 medium containing 5% fetal bovine serum and 2 mM L-glutamine. For a typical screening experiment, cells were inoculated into 96 well microtiter plates in 100 μl at plating densities ranging from 5000 to 40,000 cells/well depending on the doubling time of individual cell lines (Table 8). After cell inoculation, the microtiter plates were incubated at 37° C., under 5% CO2, 95% air and 100% relative humidity for 24 hours prior to addition of the experimental drugs.
After 24 hours, two plates of each cell line were fixed in situ with TCA, to represent a measurement of the cell population for each cell line at the time of drug addition (Tz). Compound 2(a) was solubilized in dimethyl sulfoxide at 400-fold the desired final maximum test concentration and stored frozen prior to use. At the time of drug addition, an aliquot of frozen concentrate was thawed and diluted to twice the desired final maximum test concentration with complete medium containing 50 μg/ml gentamicin. Additional four, serial dilutions were made to provide a total of five drug concentrations plus control. Aliquots of 100 μl of these different drug dilutions were added to the appropriate microtiter wells already containing 100 μl of medium, resulting in the required final drug concentrations (2.5×10^−5 M to 2.5×10^−9 M).
Following drug addition, the plates were incubated for an additional 48 hours at 37° C., 5% CO2, 95% air, and 100% relative humidity. For adherent cells, the assay was terminated by the addition of cold TCA. Cells were fixed in situ by the gentle addition of 50 μl of cold 50% (w/v) TCA (final concentration, 10% TCA) and incubation for 60 minutes at 4° C. The supernatant was discarded, and the plates were washed five times with tap water and air-dried. Sulforhodamine B (SRB) solution (100 μl) at 0.4% (w/v) in 1% acetic acid was added to each well, and plates were incubated for 10 minutes at room temperature. After staining, unbound dye was removed by washing five times with 1% acetic acid and the plates were air-dried. Bound stain was subsequently solubilized with 10 mM trizma base, and the absorbance was read on an automated plate reader at a wavelength of 515 nm. For suspension cells, the methodology was the same except that the assay was terminated by fixing settled cells at the bottom of the wells by gently adding 50 μl of 80% TCA (final concentration, 16% TCA).
The growth inhibitory power of compound 2(a) was measured by NCl utilizing the GI50 value, rather than the classical IC50 value. The GI50 value emphasizes the correction for the cell count at time zero and, using the seven adsorbance measurements [time zero (Tz), control growth (C), and the test growth in the presence of drug at each of the five concentration levels (Ti)], GI50 is calculated as [(Ti−Tz)/(C−Tz)×100=−50. which is the drug concentration resulting in a 50% reduction in the net protein increase (as measured by SRB staining) in control cells during the drug incubation.

SMILES: CC(C=CCCC=CC=CC=CC=CC(=O)NC1=C(O)CCC1=O)C(O)C(C)C(O)C=CC=CC=CC=CC=CCC(OC1OC(C)C(O)C(O)C1O)C(C)C(=O)CC(O)CC(O)CC(O)C=CCC(O)CC(O)CC(O)CC(O)C=CCC(O)CC(O)CCCN (stereo not drawn) [Compound 2(a), 56-Amino-15,17,33,35,37,41,43,45,47,51,53-undecahydroxy-14,16,30-trimethyl-31-oxo-29-(3,4,5-trihydroxy-6-methyl-tetrahydro-pyran-2-yloxy)-hexapentaconta-2,4,6,8,12,18,20,22,24,26,38,48-dodecaenoic acid (2-hydroxy-5-oxo-cyclopent-1-enyl)-amide]
- GI50 (786-0, 48 h, 786-0, Renal cancer, read-out: GI50): 3.07 µM
- GI50 (48 h, MDA-MB-, Breast cancer): 3.38 µM
- GI50 (48 h, PC-3, Prostate cancer, read-out: GI50): 2.66 µM
- GI50 (48 h, all cell lines of the NCI screening panel, 48 hours drug incubation): < 10 µM
- GI50 (A498, 48 h, A498, Renal cancer, read-out: GI50): 4.82 µM
- GI50 (A549, 48 h, A549/ATCC, Non-small cell lung cancer, read-out: GI50): 4.09 µM
- GI50 (ACHN, 48 h, ACHN, Renal cancer, read-out: GI50): 2.96 µM
- GI50 (BT-549, 48 h, BT-549, Breast cancer, read-out: GI50): 4.59 µM
- GI50 (CAKI-1, 48 h, CAKI-1, Renal cancer, read-out: GI50): 2.99 µM
- GI50 (COLO 205, 48 h, COLO 205, Colon cancer, read-out: GI50): 5 µM
- GI50 (DU-145, 48 h, DU-145, Prostate cancer, read-out: GI50): 3.78 µM
- GI50 (EKVX, 48 h, EKVX, Non-small cell lung cancer, read-out: GI50): 5.87 µM
- GI50 (HCT-15, 48 h, HCT-15, Colon cancer, read-out: GI50): 3.25 µM
- GI50 (HCT-116, 48 h, HCT-116, Colon cancer, read-out: GI50): 4.18 µM
- GI50 (HOP-62, 48 h, HOP-62, Non-small cell lung cancer, read-out: GI50): 6.83 µM
- GI50 (HT-29, 48 h, HT29, Colon cancer, read-out: GI50): 6.36 µM
- GI50 (IGROV-1, 48 h, IGROV1, Ovarian cancer, read-out: GI50): 2.95 µM
- GI50 (K562, 48 h, K-562, Leukemia, read-out: GI50): 9.18 µM
- GI50 (KM12, 48 h, KM12, Colon cancer, read-out: GI50): 2.76 µM
- GI50 (LOX IMVI, 48 h, LOX IMVI, Melanoma, read-out: GI50): 3.73 µM
- GI50 (M14, 48 h, M14, Melanoma, read-out: GI50): 4.15 µM
- GI50 (MCF7, 48 h, MCF7, Breast cancer, read-out: GI50): 4.22 µM
- GI50 (MDA-MB-435, 48 h, MDA-MB-435, Breast cancer, read-out: GI50): 3.26 µM
- GI50 (MOLT-4, 48 h, MOLT-4, Leukemia, read-out: GI50): 5.57 µM
- GI50 (Malme-3M, 48 h, MALME-3M, Melanoma, read-out: GI50): 2.4 µM
- GI50 (NCI-H23, 48 h, NCI-H23, Non-small cell lung cancer, read-out: GI50): 4.25 µM
- GI50 (NCI-H226, 48 h, NCI-H226, Non-small cell lung cancer, read-out: GI50): 3.1 µM
- GI50 (NCI-H322M, Non-small cell lung cancer, 48 h, read-out: GI50): 3.48 µM
- GI50 (NCI-H460, 48 h, NCI-H460, Non-small cell lung cancer, read-out: GI50): 3.83 µM
- GI50 (NCI-H522, 48 h, NCI-H522, Non-small cell lung cancer, read-out: GI50): 2.8 µM
- GI50 (NCI/ADR-RES, 48 h, NCI/ADR-RES, Breast cancer, read-out: GI50): 4.76 µM
- GI50 (OVCAR-3, 48 h, OVCAR-3, Ovarian cancer, read-out: GI50): 3.4 µM
- GI50 (OVCAR-4, 48 h, OVCAR-4, Ovarian cancer, read-out: GI50): 4.48 µM
- GI50 (OVCAR-5, 48 h, OVCAR-5, Ovarian cancer, read-out: GI50): 4 µM
- GI50 (OVCAR-8, 48 h, OVCAR-8, Ovarian cancer, read-out: GI50): 4.34 µM
- GI50 (RXF 393, 48 h, RXF 393, Renal cancer, read-out: GI50): 1.2 µM
- GI50 (SF-268, 48 h, SF-268, CNS cancer, read-out: GI50): 3.64 µM
- GI50 (SF-295, 48 h, SF-295, CNS cancer, read-out: GI50): 3.91 µM
- GI50 (SK-MEL-2, 48 h, SK-MEL-2, Melanoma, read-out: GI50): 4.34 µM
- GI50 (SK-MEL-5, 48 h, SK-MEL-5, Melanoma, read-out: GI50): 4.16 µM
- GI50 (SK-MEL-28, 48 h, SK-MEL-28, Melanoma, read-out: GI50): 6.75 µM
- GI50 (SK-OV-3, 48 h, SK-OV-3, Ovarian cancer, read-out: GI50): 7.94 µM
- GI50 (SNB-19, 48 h, SNB-19, CNS cancer, read-out: GI50): 5.58 µM
- GI50 (SNB-75, 48 h, SNB-75, CNS cancer, read-out: GI50): 3.87 µM
- GI50 (SW-620, 48 h, SW-620, Colon cancer, read-out: GI50): 5.35 µM
- GI50 (T47D, 48 h, T-47D, Breast cancer, read-out: GI50): 6 µM
- GI50 (TK-10, 48 h, TK-10, Renal cancer, read-out: GI50): 3.32 µM
- GI50 (U-251, 48 h, U251, CNS cancer, read-out: GI50): 3.65 µM
- GI50 (UACC-62, 48 h, UACC-62, Melanoma, read-out: GI50): 2.68 µM
- GI50 (UACC-257, 48 h, UACC-257, Melanoma, read-out: GI50): 3.74 µM
- GI50 (UO-31, 48 h, UO-31, Renal cancer, read-out: GI50): 3.65 µM
